Reference: article PMC12291119, “In Vitro Selection of Cyclized, Glycosylated Peptide Antigens That Tightly Bind HIV High Mannose Patch Antibodies” (ACS Central Science, 2025)
Numbered stars: 1 amine (or outer) side, 2 acyl side, 3 side chain; on linkers, the order of the positions; unused ones are H or OH. Bridge positions count the residues as written; N and C are the ends. Square brackets hold non-standard residues; d marks the D form. Ends that are not written are not given here. * marks the point of attachment. X1 = CC(=O)N[C@@H]1[C@@H](O)[C@H](O[C@@H]2O[C@H](CO)[C@@H](O[C@@H]3O[C@H](CO[C@H]4O[C@H](CO[C@H]5O[C@H](CO)[C@@H](O)[C@H](O)[C@@H]5O[C@H]5O[C@H](CO)[C@@H](O)[C@H](O)[C@@H]5O)[C@@H](O)[C@H](O[C@H]5O[C@H](CO)[C@@H](O)[C@H](O)[C@@H]5O[C@H]5O[C@H](CO)[C@@H](O)[C@H](O)[C@@H]5O)[C@@H]4O)[C@@H](O)[C@H](O[C@H]4O[C@H](CO)[C@@H](O)[C@H](O)[C@@H]4O[C@H]4O[C@H](CO)[C@@H](O)[C@H](O)[C@@H]4O[C@H]4O[C@H](CO)[C@@H](O)[C@H](O)[C@@H]4O)[C@@H]3O)[C@H](O)[C@H]2NC(C)=O)[C@@H](CO)O[C@H]1n1cc(CC[C@H](N[*:1])C(=O)[*:2])nn1; Biotin = O=C1N[C@H]2[C@H](CS[C@H]2CCCCC(=O)*)N1; mXylylene = c1cc(C[*:1])cc(C[*:2])c1

What was measured:
PGT128 = test: Biolayer interferometry (BLI) of immobilized biotinylated glycopeptides binding to PGT128; settings: for fold decrease in PGT128 binding relative to parent H1 glycopeptide: BLI KD compared with H1 (peptide 1)
Source text: 6 Biolayer interferometry (BLI) measurement of glycopeptides immobilized via biotin on a streptavidin biosensor binding to PGT128. All sensorgrams represent a series of 2-fold dilutions of antibody with highest concentration tested labeled. All sequences followed by GSGSGK(Biotin). M denotes homopropargylglycine, modified by CuAAC as in Figure .
C. Binding Analysis of PGT Antibody-Peptide/Glycopeptide Interactions by Biolayer Interferometry
1. Biolayer Interferometry Protocol
Biotinylated glycopeptide was loaded onto a streptavidin biosensor in 250 µL buffer 1 (500 to 1000 nM […] glycopeptide in 20 mM Tris pH 7.5, 150 mM NaCl, 0.2 mg/ml BSA, 0.02% (v/v) Tween-20) for 120s in a […] of black Eppendorf tube. The sensor was then washed with 250 µL of blank buffer 1 for 120 seconds in a […] black Eppendorf tube. The sensor was washed with 250 µL buffer 3 (10 mM glycine HCl, pH 2.5) for 120 seconds in […] of black Eppendorf tube and followed by 250 µL of blank buffer 1 for 120 seconds in a […] black Eppendorf tube to immobilize glycopeptides in a range of 0.5 nm to 2 nm response. The sensor was then equilibrated with 250 µL of buffer 2 (20 mM Tris pH 7.5, 150 mM NaCl, 2 mg/ml BSA, 0.1% (v/v) Tween-20) for 120 seconds in a […] of black Eppendorf tube PGT antibody (prepared in buffer 2) was associated at several concentrations for 300 seconds in 4 µL drop holder followed by dissociation into blank 250 µL of buffer 2 for 300 seconds in […] of black Eppendorf tube. After each dissociation sensor was regenerated to remove the remaining antibody by treatment with 250 µL of buffer 3 for 120 seconds, followed by 120 seconds of wash with 250 µL buffer 1 and re-equilibration with 250 µL buffer 2 in […] of black Eppendorf tube. Throughout the experiment, the shaker rate was set at 2200 rpm. Data were fit globally to a 1:1 binding model.
2. BLI Sensorgram of H1-QQQ-non-glycosylated Peptide with PGT128
Figure S33. […]

HIV pseudovirus panel = settings: ref number not given, cited from earlier work
Source text: We have sought to mimic HMP epitopes without using either the entire Env protein, which contains a plethora of “distracting” epitopes that easily elicit off-target antibodies; − or short glycopeptides directly derived from the Env sequence, which may not sufficiently recapitulate the HMP structure without the conformational support of the remaining Env protein. Aiming to design glycostructures that better mimic the glycan presentation in the HMP, we have pioneered various techniques for the directed evolution of DNA, , RNA, F-RNA, or peptide-supported , glycan clusters.

HIV Env = settings: read-out: reported affinities of PGT122 for HIV Env; ref number not given; cited from earlier work
Source text: We performed preliminary binding assays for those sequences and others using translated peptides with or without attached glycans. No sequ ...

[1] = diverse/representative HIV pseudovirus panel

Substance: AYTEKHNGIGDIRPAICQNSKNQNHRCNHYQIKLYIH[X1]L[X1]RLPHNYRNSGSGSGK(Biotin)-NH2 (linker 17-27 via mXylylene; C-terminus assumed) [peptide 3]
- fold decrease in PGT128 binding relative to parent H1 glycopeptide (PGT128): ~2 fold

Substance: AYTEKHNGIGDIRPAIC[X1]NSKNQNHRCNHYQIKLYIHQLQRLPHNYRNSGSGSGK(Biotin)-NH2 (linker 17-27 via mXylylene; C-terminus assumed) [peptide 4]
- fold decrease in PGT128 binding relative to parent H1 glycopeptide (PGT128): ~40 fold

Substance: PGT122: HIV bnAb binding the High Mannose Patch
- breadth (fraction of HIV pseudovirus panel neutralized) (HIV pseudovirus panel; [1]): 65%
- median IC50 (HIV pseudovirus panel; [1]): 0.05 µg/mL
- potency (EC50) (HIV pseudovirus panel; neutralization potency): 0.05 µg/mL
- Kd (HIV Env): 100 to 174 nM

Substance: ALFKPYPKIGDIRKARC[X1]LQHTLHHRTNKQPSYRRRLKTLIPLFRRC[X1]LGSGSGK(Biotin)-NH2 (linker 17-47 via mXylylene; C-terminus assumed) [compound 2]
- Kd (PGT128; BLI, peptide immobilized via biotin on streptavidin biosensor, 2-fold dilutions of PGT128 in 20 mM Tris pH 7.5, 150 mM NaCl, 2 mg/ml BSA, 0.1% Tween-20, 300 s association, 300 s dissociation, global 1:1 fit): 16.9 nM
